This assay concerns P388 leukemia ip, CD2F1 mice, survival T/C. The assay is described as follows: NCI In Vivo Anticancer Drug Screen. Data for tumor model P388 Leukemia (intraperitoneal) in CD2F1 (CDF1) mice. The settings on record: endpoint: median survival time, higher = longer survival. An outline of the steps: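 Mice carrying the transplanted tumor received test compound or vehicle. Survival was recorded in each group, and the value is the treated-group measurement divided by that of the vehicle-treated control group.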

[1] abbreviates: dose: 50.0 mg/kg/injection, schedule: Q01DX005 (ip), vehicle: saline with Tween-80.
[2] abbreviates: dose: 100.0 mg/kg/injection, schedule: Q01DX005 (ip), vehicle: saline with Tween-80.
[3] abbreviates: dose: 200.0 mg/kg/injection, schedule: Q01DX005 (ip), vehicle: saline with Tween-80.
The mark [4] stands for this setting: dose: 60.0 mg/kg/injection, schedule: Q01DX005 (ip), vehicle: saline with Tween-80.
[5] abbreviates: dose: 120.0 mg/kg/injection, schedule: Q01DX005 (ip), vehicle: saline with Tween-80.
The mark [6] stands for this setting: dose: 240.0 mg/kg/injection, schedule: Q01DX005 (ip), vehicle: saline with Tween-80.
The mark [7] stands for this setting: dose: 10.0 mg/kg/injection, schedule: Q01DX009 (ip), vehicle: other.
Setting [8] is: dose: 50.0 mg/kg/injection, schedule: Q01DX009 (ip), vehicle: saline with Tween-80.

Where “and” joins values, the source holds several entries; their conditions need not be identical. Equal entries are not always repeated. Toxic doses and inconclusive results are not listed.

`O=C1c2ccccc2C(=O)N1c1nncs1`: the T/C is, setting by setting: (dose: 100.0 mg/kg/injection, schedule: Q04DX002 (ip), vehicle: saline with Tween-80) 99 % of control; (dose: 200.0 mg/kg/injection, schedule: Q04DX002 (ip), vehicle: saline with Tween-80) 99 % of control; (dose: 400.0 mg/kg/injection, schedule: Q04DX002 (ip), vehicle: saline with Tween-80) 101 % of control.

With `Nc1ccn([C@@H](C=O)O[C@@H](C=O)CO)c(=O)n1`, the T/C was 112 % of control (dose: 44.0 mg/kg/injection, schedule: Q04DX003 (ip), vehicle: saline); 120 % of control (dose: 66.0 mg/kg/injection, schedule: Q04DX003 (ip), vehicle: saline); 150 % of control (dose: 100.0 mg/kg/injection, schedule: Q01DX009 (ip), vehicle: saline); 180 % of control (dose: 200.0 mg/kg/injection, schedule: Q01DX009 (ip), vehicle: saline).

Regarding `Nc1ccc2nc3cc(Nc4ccccc4)c(=Nc4ccccc4)cc-3n(-c3ccccc3)c2c1`, the T/C was 100 % of control under setting [1], 98 % of control under setting [2] and 93 % of control under setting [3].

Regarding `Cc1ccc(S(=O)(=O)N/N=C/C=C\C(=O)O)cc1`, the T/C (dose: 12.5 mg/kg/injection, schedule: Q01DX009 (ip), vehicle: distilled water + Tween-80) is 101 % of control; the T/C (dose: 25.0 mg/kg/injection, schedule: Q01DX009 (ip), vehicle: distilled water + Tween-80) is 99 % of control; the T/C (dose: 50.0 mg/kg/injection, schedule: Q01DX009 (ip), vehicle: distilled water + Tween-80) was 107 % of control; the T/C (dose: 100.0 mg/kg/injection, schedule: Q01DX009 (ip), vehicle: distilled water + Tween-80) is 100 % of control; the T/C (dose: 200.0 mg/kg/injection, schedule: Q01DX009 (ip), vehicle: distilled water + Tween-80) is 94 % of control; the T/C (dose: 400.0 mg/kg/injection, schedule: Q01DX009 (ip), vehicle: distilled water + Tween-80) is 110 % of control.

`N#Cc1c(N)nc(-c2ccccc2)nc1Nc1ccccc1`: the T/C was 90 % of control under setting [4], 104 % of control under setting [5] and 99 % of control under setting [6].

Take `CC(c1ccccc1)n1ccnc1CO` (stereo not drawn): the T/C was 103 % of control under setting [4], 107 % of control under setting [5] and 110 % of control under setting [6].

Take `CCC1(CC)OC(=O)C1Cl` (stereo not drawn): the T/C reads like this: under setting [1], 98 % of control; under setting [2], 113 % of control; under setting [3], 118 % of control.

`COC(=O)C(CC(C)C)NC(=O)C(Cc1cnc[nH]1)NC(=O)C(CS)N(C(=O)OCc1ccccc1)C(=O)OCc1ccccc1` (stereo not drawn): the T/C was 99 % of control under setting [1], 98 % of control under setting [2] and 100 % of control under setting [3].

On to `CC1(COc2ccccc2OCC2(C)CO2)CO1` (stereo not drawn), for which the T/C is, setting by setting: (dose: 1.88 mg/kg/injection, schedule: Q01DX005 (ip), vehicle: saline with Tween-80) 102 % of control; (dose: 3.75 mg/kg/injection, schedule: Q01DX005 (ip), vehicle: saline with Tween-80) 100 % of control; (dose: 7.5 mg/kg/injection, schedule: Q01DX005 (ip), vehicle: saline with Tween-80) 98 % of control; (dose: 15.0 mg/kg/injection, schedule: Q01DX005 (ip), vehicle: saline with Tween-80) 100 % of control; (dose: 30.0 mg/kg/injection, schedule: Q01DX005 (ip), vehicle: saline with Tween-80) 100 % of control; under setting [4], 102 % of control. The T/C under setting [5] is 107 % of control.

As for `COc1cc(-c2coc3c4c(ccc3c2=O)OC(C)(C)C=C4)c(OC)c2c1OCO2`, the T/C under setting [7] was 111 % of control; the T/C (dose: 20.0 mg/kg/injection, schedule: Q01DX009 (ip), vehicle: other) is 102 % of control; the T/C (dose: 40.0 mg/kg/injection, schedule: Q01DX009 (ip), vehicle: other) was 123 % of control.

On to `Cn1c(C(F)(F)F)nc2nc(Cl)c(Cl)nc21`, for which the T/C runs as follows: (dose: 25.0 mg/kg/injection, schedule: Q01DX005 (ip), vehicle: saline with Tween-80) 108 % of control; under setting [1], 106 % of control; under setting [2], 101 % of control and 106 % of control; under setting [3], 99 % of control and 103 % of control; (dose: 400.0 mg/kg/injection, schedule: Q01DX005 (ip), vehicle: saline with Tween-80) 101 % of control.

`CCOc1cccc(/C=C2/C(=O)N(Cc3ccco3)SC2=S)c1O`: the T/C (dose: 3.12 mg/kg/injection, schedule: Q01DX009 (ip), vehicle: Klucel (hydroxypropylcellulose) (HPC)) is 93 % of control; the T/C (dose: 6.25 mg/kg/injection, schedule: Q01DX009 (ip), vehicle: Klucel (hydroxypropylcellulose) (HPC)) was 93 % of control; the T/C (dose: 12.5 mg/kg/injection, schedule: Q01DX009 (ip), vehicle: Klucel (hydroxypropylcellulose) (HPC)) was 93 % of control and 94 % of control; the T/C (dose: 25.0 mg/kg/injection, schedule: Q01DX009 (ip), vehicle: Klucel (hydroxypropylcellulose) (HPC)) is 98 % of control.

Take `Brc1ccc2c(NCCCCCCCCNc3c4ccccc4nc4cc(Br)ccc34)c3ccccc3nc2c1`: the T/C reads like this: (dose: 0.32 mg/kg/injection, schedule: Q01DX009 (ip), vehicle: other) 100 % of control; (dose: 0.63 mg/kg/injection, schedule: Q01DX009 (ip), vehicle: other) 99 % of control; (dose: 1.25 mg/kg/injection, schedule: Q01DX009 (ip), vehicle: other) 107 % of control; (dose: 2.5 mg/kg/injection, schedule: Q01DX009 (ip), vehicle: other) 109 % of control; (dose: 5.0 mg/kg/injection, schedule: Q01DX009 (ip), vehicle: other) 96 % of control; under setting [7], 101 % of control.

`COc1cc(COC(=O)Nc2ccccc2F)cc(OC)c1OC`: the T/C is, setting by setting: under setting [1], 93 % of control; under setting [2], 101 % of control; under setting [3], 92 % of control.

For `CCCCOCN(CCc1ccccc1)COCCCC`, the T/C is, setting by setting: under setting [8], 118 % of control; (dose: 200.0 mg/kg/injection, schedule: Q01DX009 (ip), vehicle: saline with Tween-80) 152 % of control.

For `CC(C)[C@H]1OC(=O)C=C2[C@@]13O[C@@H]3[C@H]1OC(=O)[C@]3(C)C1[C@]2(C)CC[C@@H]3O` (stereo partly drawn), the T/C was 101 % of control (dose: 1.0 mg/kg/injection, schedule: Q01DX009 (ip), vehicle: saline with Tween-80) and 105 % of control (dose: 40.0 mg/kg/injection, schedule: Q01DX009 (ip), vehicle: saline with Tween-80).

For the molecule `CCC1CN2CCc3cc(OC)c(OC)cc3C2CC1(O)C#N` (stereo not drawn), the T/C (dose: 100.0 mg/kg/injection, schedule: Q01DX009 (ip), vehicle: Klucel (hydroxypropylcellulose) (HPC)) was 99 % of control and the T/C (dose: 200.0 mg/kg/injection, schedule: Q01DX009 (ip), vehicle: Klucel (hydroxypropylcellulose) (HPC)) is 102 % of control.

Turning to `O=C(NO)C1CCCCC12OCCO2` (stereo not drawn), the T/C is 98 % of control (dose: 100.0 mg/kg/injection, schedule: Q04DX002 (ip), vehicle: saline); 101 % of control (dose: 200.0 mg/kg/injection, schedule: Q04DX002 (ip), vehicle: saline); 101 % of control (dose: 400.0 mg/kg/injection, schedule: Q04DX002 (ip), vehicle: saline).

Consider `Clc1ccc(-c2ncnc3c2Cc2ccccc2-3)cc1`, for which the T/C runs as follows: (dose: 100.0 mg/kg/injection, schedule: Q04DX003 (ip), vehicle: saline with Tween-80) 104 % of control; (dose: 200.0 mg/kg/injection, schedule: Q04DX003 (ip), vehicle: saline with Tween-80) 100 % of control; (dose: 400.0 mg/kg/injection, schedule: Q04DX003 (ip), vehicle: saline with Tween-80) 104 % of control.

On to `Clc1ccc(-c2nnc3ncccn23)cc1`, for which the T/C reads like this: (dose: 100.0 mg/kg/injection, schedule: Q01DX001 (ip), vehicle: saline with Tween-80) 96 % of control; (dose: 200.0 mg/kg/injection, schedule: Q01DX001 (ip), vehicle: saline with Tween-80) 105 % of control.

As for `NC(N)=NC(N)=Nc1ccc(Cl)c(Cl)c1`, the T/C (dose: 12.5 mg/kg/injection, schedule: Q01DX009 (ip), vehicle: saline with Tween-80) was 103 % of control; the T/C (dose: 25.0 mg/kg/injection, schedule: Q01DX009 (ip), vehicle: saline with Tween-80) was 103 % of control and 106 % of control; the T/C under setting [8] was 112 % of control and 93 % of control; the T/C (dose: 100.0 mg/kg/injection, schedule: Q01DX009 (ip), vehicle: saline with Tween-80) was 88 % of control; the T/C (dose: 100.0 mg/kg/injection, schedule: Q04DX003 (ip), vehicle: saline) is 109 % of control.

Regarding `O=c1[nH]c(=O)c2sc3ncccc3c2[nH]1`, the T/C (dose: 6.25 mg/kg/injection, schedule: Q01DX009 (ip), vehicle: saline) is 119 % of control; the T/C (dose: 12.5 mg/kg/injection, schedule: Q01DX009 (ip), vehicle: saline) was 100 % of control; the T/C (dose: 25.0 mg/kg/injection, schedule: Q01DX009 (ip), vehicle: saline) is 101 % of control.

Values taken from PubChem BioAssay AID330 (DTP/NCI, 2004).
